Assay results reported in ChEMBL document CHEMBL1201862, “PubChem BioAssay data set” (2004).
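In this assay, cells in 96-well plates receive the compound at five concentrations for 48 hours. Endpoints are linearly interpolated between the surrounding concentrations. The concentration for 50% growth inhibition is given as GI50.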 The source made the active and inactive calls. No stated cut-off is given here; in the data, active = GI50 up to about 1.1 µM and inactive = higher.

How the values were obtained:
Test in all cases: growth of human tumour cells (NCI), 48 h
RXF 631 = test system: RXF 631
M19-MEL = test system: M19-MEL
SNB-78 = test system: SNB-78
KM-20L2 = test system: KM-20L2
XF498 = test system: XF498
DMS-114 = test system: DMS-114
HOP-18 = test system: HOP-18

Row | Structure (SMILES) | GI50 (RXF 631) | GI50 (M19-MEL) | GI50 (SNB-78) | GI50 (KM-20L2) | GI50 (XF498) | GI50 (DMS-114) | GI50 (HOP-18)
1 | Cc1ccc(OCC(=O)N2N=C(c3ccccc3)CC2(O)c2ccccc2)cc1 (stereo not given) | 26.9 µM (inactive) | 44.6 µM (inactive) | 22.1 µM (inactive) | 18 µM (inactive) | > 100 µM (inactive) |  | 
2 | COC1=CC(=O)NCCN1 | > 100 µM (inactive) | > 100 µM (inactive) | > 100 µM (inactive) | > 100 µM (inactive) | > 100 µM (inactive) | > 100 µM (inactive) | > 100 µM (inactive)
3 | Nc1nc(=O)n(C2CC(O)C(O)C(CO)O2)cc1F (stereo not given) | > 100 µM (inactive) | > 100 µM (inactive) | > 100 µM (inactive) | > 100 µM (inactive) | 61.4 µM (inactive) | > 100 µM (inactive) | > 100 µM (inactive)
4 | CN(C)C(=O)/N=c1\ss/c(=N\C(=S)N(C)C)n1-c1ccccc1 | 36.1 µM (inactive) | 31.9 µM (inactive) | 65.8 µM (inactive) | 54 µM (inactive) | 43.7 µM (inactive) | 10.3 µM (inactive) | > 10 µM (inactive)
5 | N#Cc1c(C(N)=O)ncn1Cc1ccccc1 | > 100 µM (inactive) | > 100 µM (inactive) | > 100 µM (inactive) | > 100 µM (inactive) | > 100 µM (inactive) | > 100 µM (inactive) | > 100 µM (inactive)
6 | CCOC(=O)CCC(NC(=O)c1ccc(/N=C/c2nc3ccccc3nc2-c2ccccc2)cc1)C(=O)OCC (stereo not given) | > 100 µM (inactive) |  | > 100 µM (inactive) | > 100 µM (inactive) | > 100 µM (inactive) | > 100 µM (inactive) | 35.4 µM (inactive)
7 | COC(=O)c1ncc2c(=O)[nH]c3ccccc3c2c1C(=O)OC | > 100 µM (inactive) | > 100 µM (inactive) | > 100 µM (inactive) | > 100 µM (inactive) | > 100 µM (inactive) | > 100 µM (inactive) | > 100 µM (inactive)
8 | CC1(C)OC(=O)[C@@](C)([C@H](O)c2ccccc2)O1 | 79.4 µM (inactive) | > 100 µM (inactive) | > 100 µM (inactive) | > 100 µM (inactive) | > 100 µM (inactive) | 56.8 µM (inactive) | 
9 | O=C(O)c1ccccc1C1c2ccc(Cl)cc2Oc2cc(Cl)ccc21 | > 100 µM (inactive) | > 100 µM (inactive) |  | > 100 µM (inactive) |  | > 100 µM (inactive) | > 100 µM (inactive)
10 | CCOP1(=O)C=C(C)C(=C(Cl)Cl)C(C)=C1 (stereo not given) | 5.87 µM (inactive) | 8.07 µM (inactive) | > 10 µM (inactive) | 2.68 µM (inactive) | 0.548 µM (active) |  | 13.8 µM (inactive)
11 | CN(C)CC(/C(Cc1ccccc1)=N\NC(=O)C[n+]1ccccc1)c1ccccc1 (stereo not given) | > 100 µM (inactive) | > 100 µM (inactive) | 53.2 µM (inactive) | > 100 µM (inactive) | > 100 µM (inactive) | > 100 µM (inactive) | > 100 µM (inactive)
12 | CCOCN1COCN/C1=N/C#N | > 100 µM (inactive) |  | > 100 µM (inactive) | > 100 µM (inactive) | > 100 µM (inactive) | 71.4 µM (inactive) | > 100 µM (inactive)
13 | CC(C)CCCC(C)[C@H]1CCC2[C@@H]3CCC4Nc5c(cnn5-c5ccccc5)C[C@]4(C)C3CC[C@@]21C (stereo not given in full) | 13.1 µM (inactive) | 26.1 µM (inactive) | 18.7 µM (inactive) | 13.1 µM (inactive) | 15.3 µM (inactive) | 52.8 µM (inactive) | > 100 µM (inactive)
14 | CC1=C2C3OC(=O)C(C)C3C(O)C[C@@]2(C)C(=O)CC1 (stereo not given in full) | > 100 µM (inactive) | > 100 µM (inactive) | > 100 µM (inactive) | > 100 µM (inactive) |  | > 100 µM (inactive) | > 100 µM (inactive)
15 | COc1cccc(/C=C\c2cc(OC)c(OC)c(OC)c2)c1 | 0.836 µM (active) | 12.1 µM (inactive) | 1.24 µM (inactive) | 0.37 µM (active) | 2.8 µM (inactive) | 1.48 µM (inactive) | 
